≈ marks a conversion by molar mass, not a printed value.

The data set can be described thus: Solubilities of lamotrigine in various non-aqueous solvents and purified water. The data set is classed as physicochemical.

The term solubility denotes how much of the substance goes into solution per volume. `Nc1nnc(-c2cccc(Cl)c2Cl)c(N)n1` [lamotrigine, 3,5-diamino-6-(2,3-dichlorophenyl)-1,2,4-triazine]: the solubility by setting is: (organic solvent or mixture, solvent Glycerin) 20.2 mg/mL (≈ 79 mM); (organic solvent or mixture, solvent PEG 400) more than 30 mg/mL; (organic solvent or mixture, solvent Polypropylene glycol 400) 10 to 20 mg/mL (≈ 39 to 78.1 mM); (organic solvent or mixture, solvent Propylene Glycol) 40.2 mg/mL (≈ 157 mM); (solvent Purified water) 0.31 mg/mL (≈ 1.21 mM).

Values taken from patent publication US12661360B2 (Tulex Pharmaceuticals Inc., priority 2023, dated 2026).
